Data published in PMC9108036 (Biomedicine & Pharmacotherapy, 2022).

Test system: lentiviral pseudovirus with SARS-CoV-2 spike D614G
Type: cell-based

| Structure (SMILES) | IC50 [µM] | inhibition of virus entry (in words) | maximum response (inhibition) [%] |
| --- | --- | --- | --- |
| CCCCC[C@H](O)/C=C/[C@H]1[C@H](O)CC(=O)[C@@H]1CCCCCCC(=O)O [Alprostadil] | 7.42 |  |  |
| CN(C)C(=O)COC(=O)Cc1ccc(OC(=O)c2ccc(NC(=N)N)cc2)cc1 [Camostat] |  | failed to inhibit virus entry sufficiently | 50 |
| CN(C)CCCN1c2ccccc2Sc2ccc(Cl)cc21 [Chlorpromazine] | 9.63 |  |  |
| Nc1nc(Cl)nc2c1ncn2[C@H]1C[C@H](O)[C@@H](CO)O1 [Cladribine] | 7.74 |  |  |
| CC(=O)O[C@@]12CO[C@@H]1C[C@H](O)[C@@]1(C)C(=O)[C@H](O)C3=C(C)[C@@H](OC(=O)[C@H](O)[C@@H](NC(=O)OC(C)(C)C)c4ccccc4)C[C@@](O)([C@@H](OC(=O)c4ccccc4)[C@H]21)C3(C)C [Docetaxel] | < 0.08 |  |  |
| O=c1[nH]cc(F)c(=O)[nH]1 [Fluorouracil] | 7.01 |  |  |
| N=C(N)c1ccc2cc(OC(=O)c3ccc(N=C(N)N)cc3)ccc2c1 [Nafamostat] |  |  | 50 |
